{
  "source": "patent US20090023186A1",
  "about": "“USE OF VALPROIC ACID FOR ENHANCING PRODUCTION OF RECOMBINANT PROTEINS IN MAMMALIAN CELLS” (EXCELLGENE SA, priority 2007, published 2009)",
  "test_system": "CHO DG44 cells",
  "experiment": "Transient IgG expression, batch titer by ELISA, VPA concentration series (Example 1)",
  "type": "cell-based, Chinese Hamster",
  "conditions": "for Fold increase over control / Batch titer: IgG, day 5 after transfection; for Batch titer: 37° C.",
  "experimental": "10 million suspension-adapted HEK293E cells were resuspended in 0.5 ml of Ex-Cell 293 HEK 293 serum-free medium with 4 mmol/l L-glutamine (Cat. No. 14571C-1000 M; Lot No. 6A0093; SAFC Biosciences, Lenexa, Kans., USA, “Ex-Cell” medium; note: “Ex-Cell” medium-as used herein-refers to a medium comprising 4 mmol/l L-glutamine) in a 50-ml filter tube each (TPP AG, Trasadingen, Switzerland; Cat. No. 87050, Lot 20050174). In a separate set, 10 million suspension-adapted CHO DG44 cells were resuspended in 0.5 ml of ProCHO5 serum-free medium with 4 mmol/[…] hypoxanthine and 0.194 g/l thymidine (BioWhittaker (Lonza), Belgium; Cat. No. BE12-[…]; Lot No. 7 MB0040; “ProCHO5” medium; note: “ProCHO5” medium-as used herein-refers to a medium comprising 4 mmol/[…] hypoxanthine and 0.194 g/l thymidine) in a 50-ml filter tube each (TPP AG, Trasadingen, Switzerland; Cat. No. 87050, Lot 20050174). Then 12.5 μg plasmid DNA at a concentration of 1 μg/μl was added in each tube with the following composition 50% (6.25 μg) p-LC (SEQ ID NO: 1) 50% (6.25 μg) p-HC (SEQ ID NO: 3). Plasmid p-LC comprises the genetic information for the production of the light chain of an IgG antibody, plasmid p-HC comprises the genetic information for the production of the heavy chain of an IgG antibody. The particular vector constructs used in the present invention can also be obtained from the inventors. The inventors can be contacted via e-mail at […]. Moreover, commercial services do exist that produce any desired nucleotide sequence even comprising several kilobase pairs including complete expression cassettes in plasmid backgrounds (e.g., Invitrogen, Carlsbad, USA; Geneart, Germany.) Thus, providing the genetic sequence information of the plasmids should enable one of ordinary skill in the art to order the plasmids of the present invention at one of the commercial services listed. After shortly mixing the DNA with the cells by gentle shaking, 25 μg of 25-kd linear polyethyleneimine (“PEI”; Polysciences, Eppelheim, Germany; [2]) were added at a concentration of 1 μg/μl to each of the tubes. After shortly mixing by gentle shaking, the filter tubes containing the cells together with the DNA and PEI were transferred into an orbital shaker (Kühner Shaker Cabinet ISF-4-W, “Kühner shaker”, Kühner AG, Birsfelden, Switzerland), and the cells were incubated for 4 hours at 37° C. in a 5% CO2 atmosphere under shaking at 180 rpm. After that time, 4.5 ml of Ex-Cell medium were added to each of the filter tubes containing HEK 293 cells and 4.5 ml of Pro-CHO5 were added to each of the filter tubes containing CHO DG44 cells. Then, valproic acid was added to each of the tubes at the corresponding final concentration. The cells then were returned into the Kühner shaker and incubated at 37° C. in a 5% CO2 atmosphere under shaking at 180 rpm. […] The ELISA was performed as published in prior art. In short, Goat anti-human kappa light chain IgG (Biosource) was used for coating the ELISA-plates, and with AP-conjugated goat anti-human gamma chain IgG (Biosource) the synthesized IgG1 was detected. NPP was used as a substrate for the alkaline phosphatase. Absorption was measured at 405 nm against 490 nm using a microplate reader (SPECTRAmaxTM340; Molecular Devices, Palo Alto, Calif., USA).",
  "data": [
    {"smiles": "CCCC(CCC)C(=O)O", "note": "[VPA, valproic acid]", "values": [
      {"measurement": "Fold increase over control", "setting": "0.05 mmol/l final VPA", "value": 1, "unit": "fold"},
      {"measurement": "Batch titer", "setting": "0.05 mmol/l final VPA", "value": "7.4 ± 1.1", "unit": "mg/L"},
      {"measurement": "Fold increase over control", "setting": "0.1 mmol/l final VPA", "value": 1.3, "unit": "fold"},
      {"measurement": "Batch titer", "setting": "0.1 mmol/l final VPA", "value": "10.0 ± 1.5", "unit": "mg/L"},
      {"measurement": "Fold increase over control", "setting": "0.2 mmol/l final VPA", "value": 1.8, "unit": "fold"},
      {"measurement": "Batch titer", "setting": "0.2 mmol/l final VPA", "value": "13.7 ± 1.2", "unit": "mg/L"},
      {"measurement": "Fold increase over control", "setting": "0.5 mmol/l final VPA", "value": 2.1, "unit": "fold"},
      {"measurement": "Batch titer", "setting": "0.5 mmol/l final VPA", "value": "16.3 ± 1.3", "unit": "mg/L"},
      {"measurement": "Fold increase over control", "setting": "1 mmol/l final VPA", "value": 1.9, "unit": "fold"},
      {"measurement": "Batch titer", "setting": "1 mmol/l final VPA", "value": "14.4 ± 1.2", "unit": "mg/L"},
      {"measurement": "Fold increase over control", "setting": "2 mmol/l final VPA", "value": 1.3, "unit": "fold"},
      {"measurement": "Batch titer", "setting": "2 mmol/l final VPA", "value": "10.0 ± 0.9", "unit": "mg/L"},
      {"measurement": "Fold increase over control", "setting": "3 mmol/l final VPA", "value": 1.0, "unit": "fold"},
      {"measurement": "Batch titer", "setting": "3 mmol/l final VPA", "value": "7.4 ± 1.2", "unit": "mg/L"},
      {"measurement": "optimal final concentration", "setting": "for batch titer, CHO DG44 cells, day 5", "value": "around 0.5 mmol/l"}
    ]}
  ]
}
